Measurements from PubChem BioAssay AID2060495 (Molecular Pharmacology Branch, DTP, NCI, 2025).

Tested on: 521955-158-R2-J5-PDC complex spheroid viability
Assay: Anticancer human tumor 521955-158-R2-J5-PDC patient-derived pancreatic carcinoma cell line growth inhibition [GQUAD]
Details: for IC50: curve of first compound; for viability, T/C: stronger effect = lower value
How it was run: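 Tumor cells were grown as complex spheroids with HUVEC endothelial cells and mesenchymal stem cells as stroma. G-quadruplex stabilizers were combined with targeted agents over half-log dilutions from near the clinical Cmax, or from 10 microM.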

[1] = second compound 0.0316 µM, first compound 0.0316 µM
[2] = second compound 0.0316 µM, first compound 0.1 µM
[3] = second compound 0.0316 µM, first compound 0.316 µM
[4] = second compound 0.0316 µM, first compound 1 µM
[5] = second compound 0.0316 µM, first compound 3.16 µM
[6] = second compound 0.0316 µM, first compound 10 µM
[7] = second compound 0.1 µM, first compound 0.0316 µM
[8] = second compound 0.1 µM, first compound 0.1 µM
[9] = second compound 0.1 µM, first compound 0.316 µM
[10] = second compound 0.1 µM, first compound 1 µM
[11] = second compound 0.1 µM, first compound 3.16 µM
[12] = second compound 0.1 µM, first compound 10 µM
[13] = second compound 0.316 µM, first compound 0.0316 µM
[14] = second compound 0.316 µM, first compound 0.1 µM
[15] = second compound 0.316 µM, first compound 0.316 µM
[16] = second compound 0.316 µM, first compound 1 µM
[17] = second compound 0.316 µM, first compound 3.16 µM
[18] = second compound 0.316 µM, first compound 10 µM
[19] = second compound 1 µM, first compound 0.0316 µM
[20] = second compound 1 µM, first compound 0.1 µM
[21] = second compound 1 µM, first compound 0.316 µM
[22] = second compound 1 µM, first compound 1 µM
[23] = second compound 1 µM, first compound 3.16 µM
[24] = second compound 1 µM, first compound 10 µM
[25] = second compound 3.16 µM, first compound 0.0316 µM
[26] = second compound 3.16 µM, first compound 0.1 µM
[27] = second compound 3.16 µM, first compound 0.316 µM
[28] = second compound 3.16 µM, first compound 1 µM
[29] = second compound 3.16 µM, first compound 3.16 µM
[30] = second compound 3.16 µM, first compound 10 µM
[31] = second compound 10 µM, first compound 0.0316 µM
[32] = second compound 10 µM, first compound 0.1 µM
[33] = second compound 10 µM, first compound 0.316 µM
[34] = second compound 10 µM, first compound 1 µM
[35] = second compound 10 µM, first compound 3.16 µM
[36] = second compound 10 µM, first compound 10 µM
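Note: spheroids exposed to agents for one week before reading.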
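Throughout, for viability, T/C: 100% = DMSO vehicle control viability.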

Work on CC1COCCN1c1cc(C2(O)CC3CCC(C2)O3)c2cnn(-c3ccn[nH]3)c2n1 (stereo unspecified) + CN(C)c1ccc(Nc2c3ccc(NC(=O)CCN4CCCC4)cc3nc3cc(NC(=O)CCN4CCCC4)ccc23)cc1 yielded an IC50 (second compound 0.0316 µM) of 44.6 nM, an IC50 (second compound 0.1 µM) of 35.1 nM and an IC50 (second compound 0.316 µM) of 31.6 nM. The IC50 (second compound 1 µM) was 36.1 nM, the IC50 (second compound 3.16 µM) was < 31.6 nM and the IC50 (second compound 10 µM) was < 31.6 nM. It also gave a viability, T/C [1] of 60.7%, a viability, T/C [2] of 20.8% and a viability, T/C [3] of 22.1%. For the same compound, the viability, T/C [4] was 27.8%, the viability, T/C [5] was 32.3% and the viability, T/C [6] was 20.1%. For the same compound, the viability, T/C [7] was 52.4%, the viability, T/C [8] was 18.3% and the viability, T/C [9] was 24%. The viability, T/C [10] was 26.1%, the viability, T/C [11] was 32.9% and the viability, T/C [12] was 19.2%. It also gave a viability, T/C [13] of 50.1%, a viability, T/C [14] of 20.1% and a viability, T/C [15] of 23.8%. The viability, T/C [16] was 31.3%, the viability, T/C [17] was 31.9% and the viability, T/C [18] was 19.6%. It also gave a viability, T/C [19] of 53.5%, a viability, T/C [20] of 17.6% and a viability, T/C [21] of 17.9%. The viability, T/C [22] was 26.4%, the viability, T/C [23] was 37.4% and the viability, T/C [24] was 14.2%. The viability, T/C [25] was 47%, the viability, T/C [26] was 21.5% and the viability, T/C [27] was 18.9%. The viability, T/C [28] was 27.6%, the viability, T/C [29] was 34.1% and the viability, T/C [30] was 17.2%. It also gave a viability, T/C [31] of 49.3%, a viability, T/C [32] of 30.1% and a viability, T/C [33] of 27.9%. The viability, T/C [34] was 25.3%, the viability, T/C [35] was 28.4% and the viability, T/C [36] was 13.3%.

Cn1ncnc1[C@H]1c2n[nH]c(=O)c3cc(F)cc(c23)N[C@@H]1c1ccc(F)cc1 + Cc1cnc(CNC(=O)c2c(=O)c3ccc(N4CCCN(C)CC4)nc3n3c2sc2ccccc23)cn1 was tested, and the IC50 (second compound 0.0316 µM) was > 316 nM, the IC50 (second compound 0.1 µM) was 316 nM and the IC50 (second compound 0.316 µM) was < 0.999 nM. The IC50 (second compound 1 µM) was < 0.999 nM, the IC50 (second compound 3.16 µM) was < 0.999 nM and the IC50 (second compound 10 µM) was < 0.999 nM. It also gave a viability, T/C (second compound 0.0316 µM, first compound 0.000999 µM) of 85.8%, a viability, T/C (second compound 0.0316 µM, first compound 0.00316 µM) of 70.8% and a viability, T/C (second compound 0.0316 µM, first compound 0.00999 µM) of 67.1%. For the same compound, the viability, T/C [1] was 62%, the viability, T/C (second compound 0.0316 µM, first compound 0.0999 µM) was 53.9% and the viability, T/C [3] was 57.5%. For the same compound, the viability, T/C (second compound 0.1 µM, first compound 0.000999 µM) was 62.3%, the viability, T/C (second compound 0.1 µM, first compound 0.00316 µM) was 77.7% and the viability, T/C (second compound 0.1 µM, first compound 0.00999 µM) was 54.8%. It also gave a viability, T/C [7] of 48.2%, a viability, T/C (second compound 0.1 µM, first compound 0.0999 µM) of 54.2% and a viability, T/C [9] of 55.5%. The viability, T/C (second compound 0.316 µM, first compound 0.000999 µM) was 44.1%, the viability, T/C (second compound 0.316 µM, first compound 0.00316 µM) was 48.6% and the viability, T/C (second compound 0.316 µM, first compound 0.00999 µM) was 44.7%. For the same compound, the viability, T/C [13] was 34.2%, the viability, T/C (second compound 0.316 µM, first compound 0.0999 µM) was 31.3% and the viability, T/C [15] was 24.3%. For the same compound, the viability, T/C (second compound 1 µM, first compound 0.000999 µM) was 26.8%, the viability, T/C (second compound 1 µM, first compound 0.00316 µM) was 25.1% and the viability, T/C (second compound 1 µM, first compound 0.00999 µM) was 23.1%. The viability, T/C [19] was 20%, the viability, T/C (second compound 1 µM, first compound 0.0999 µM) was 21% and the viability, T/C [21] was 16.6%. It also gave a viability, T/C (second compound 3.16 µM, first compound 0.000999 µM) of 16%, a viability, T/C (second compound 3.16 µM, first compound 0.00316 µM) of 19.6% and a viability, T/C (second compound 3.16 µM, first compound 0.00999 µM) of 20.8%. The viability, T/C [25] was 20.4%, the viability, T/C (second compound 3.16 µM, first compound 0.0999 µM) was 15.3% and the viability, T/C [27] was 14%. For the same compound, the viability, T/C (second compound 10 µM, first compound 0.000999 µM) was 20.7%, the viability, T/C (second compound 10 µM, first compound 0.00316 µM) was 15.7% and the viability, T/C (second compound 10 µM, first compound 0.00999 µM) was 21.8%. It also gave a viability, T/C [31] of 19.8%, a viability, T/C (second compound 10 µM, first compound 0.0999 µM) of 15.7% and a viability, T/C [33] of 17.2%.

For Cc1cccc(N(C)C(=O)C2C(O)CCN2c2nc(C)cc(C(F)(F)F)c2C#N)c1 (stereo unspecified) + CN(C)c1ccc(Nc2c3ccc(NC(=O)CCN4CCCC4)cc3nc3cc(NC(=O)CCN4CCCC4)ccc23)cc1, the IC50 (second compound 0.0316 µM) was > 10000 nM, the IC50 (second compound 0.1 µM) was > 10000 nM and the IC50 (second compound 0.316 µM) was > 10000 nM. The IC50 (second compound 1 µM) was > 10000 nM, the IC50 (second compound 3.16 µM) was > 10000 nM and the IC50 (second compound 10 µM) was 2590 nM. It also gave a viability, T/C [1] of 110%, a viability, T/C [2] of 102% and a viability, T/C [3] of 99.6%. It also gave a viability, T/C [4] of 107%, a viability, T/C [5] of 103% and a viability, T/C [6] of 116%. The viability, T/C [7] was 102%, the viability, T/C [8] was 91.4% and the viability, T/C [9] was 99.3%. It also gave a viability, T/C [10] of 96.3%, a viability, T/C [11] of 125% and a viability, T/C [12] of 109%. It also gave a viability, T/C [13] of 104%, a viability, T/C [14] of 95.2% and a viability, T/C [15] of 103%. It also gave a viability, T/C [16] of 118%, a viability, T/C [17] of 130% and a viability, T/C [18] of 99.9%. For the same compound, the viability, T/C [19] was 84.6%, the viability, T/C [20] was 99.7% and the viability, T/C [21] was 96.3%. For the same compound, the viability, T/C [22] was 86%, the viability, T/C [23] was 94.4% and the viability, T/C [24] was 84.2%. The viability, T/C [25] was 85.8%, the viability, T/C [26] was 72.1% and the viability, T/C [27] was 77.4%. The viability, T/C [28] was 78%, the viability, T/C [29] was 93.4% and the viability, T/C [30] was 54.1%. The viability, T/C [31] was 67.2%, the viability, T/C [32] was 54.3% and the viability, T/C [33] was 58%. The viability, T/C [34] was 58.4%, the viability, T/C [35] was 48.5% and the viability, T/C [36] was 18.8%.
